Source: patent publication US20190322676A1, “CERAMIDE GALACTOSYLTRANSFERASE INHIBITORS FOR THE TREATMENT OF DISEASE” (BioMarin Pharmaceutical Inc., priority 2016, published 2019)
Structures can show the parent of a compound that is named as a salt.

Target: T1, human CGT (ceramide galactosyltransferase), CHO/CGT lysate (Homo sapiens, UniProt Q16880)
T1 construct: Full-length human CGT cDNA was cloned into the BamH1/Xho1 site of pcDNA3.1 (+); expressed in transfected cells; host or cells: Chinese hamster ovary (CHO) cells; lysate prepared with M-PER
T1 sequence (Q16880 21-541): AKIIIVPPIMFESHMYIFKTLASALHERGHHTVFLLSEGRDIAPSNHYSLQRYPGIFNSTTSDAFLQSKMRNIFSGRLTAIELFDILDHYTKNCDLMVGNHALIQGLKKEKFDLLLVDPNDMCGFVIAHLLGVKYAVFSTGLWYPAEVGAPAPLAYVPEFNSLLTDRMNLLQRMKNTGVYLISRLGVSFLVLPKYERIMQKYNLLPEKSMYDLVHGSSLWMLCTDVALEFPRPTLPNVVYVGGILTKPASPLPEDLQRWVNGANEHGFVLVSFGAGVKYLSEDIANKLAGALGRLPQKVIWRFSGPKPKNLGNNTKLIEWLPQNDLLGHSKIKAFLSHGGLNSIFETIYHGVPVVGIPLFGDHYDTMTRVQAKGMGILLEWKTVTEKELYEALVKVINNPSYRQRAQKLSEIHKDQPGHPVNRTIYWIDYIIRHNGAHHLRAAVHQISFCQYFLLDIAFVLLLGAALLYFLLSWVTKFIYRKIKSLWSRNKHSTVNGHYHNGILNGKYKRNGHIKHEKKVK
Assay: CGT enzyme assay, RapidFire/MS/MS readout (Table 1 ranges with one asterisk *)
Format: biochemical
Settings: RapidFire method (range with one asterisk *)
Method in brief: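 Lysate (4 μg) of CHO cells transfected with full-length human CGT incubated 1 h at 37 °C with compound (0.001–50 μM) in pH 7.2 HEPES buffer with 10 μM C6-NBD-dihydro-ceramide, 17.5 μM UDP-galactose, Mg2+/Mn2+, CHAPS, BSA, 0.5% DMSO; ** set also contained 0.01% Tween 80. Product quantified by RapidFire/MS/MS, normalized to internal standard; IC50 from sigmoidal variable-slope fits.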

Row | SMILES | IC50
1 | COc1cc(C(F)(F)[C@H](NS(=O)(=O)c2ccc(OCC3CCCCC3)cc2)C(=O)N2C3CCC2CC(N)C3)ccc1Cl (stereo partly drawn) [Compound 125-1, N-((2R)-3-(3-amino-8-azabicyclo[3.2.1]octan-8-yl)-1-(4-chloro-3-methoxyphenyl)-1,1-difluoro-3-oxopropan-2-yl)-4-(cyclohexylmethoxy) benzenesulfonamide] | < 1 µM
2 | COc1cc(C(F)(F)[C@@H](NS(=O)(=O)c2ccc(OCC3CCCCC3)cc2)C(=O)N2C3CCC2CC(N)C3)ccc1Cl (stereo partly drawn) [Compound 125-2, N-((2S)-3-(3-amino-8-azabicyclo[3.2.1]octan-8-yl)-1-(4-chloro-3-methoxyphenyl)-1,1-difluoro-3-oxopropan-2-yl)-4-(cyclohexylmethoxy)benzenesulfonamide] | 10 to 30 µM
3 | CCCCOc1cc(C(F)(F)[C@H](NS(=O)(=O)c2ccc3cc(OC4CCCC4)ccc3c2)C(=O)N2CCC(N)CC2)ccc1Cl [Compound 126-1, (R)—N-(3-(4-aminopiperidin-1-yl)-1-(3-butoxy-4-chlorophenyl)-1,1-difluoro-3-oxopropan-2-yl)-6-(cyclopentyloxy)naphthalene-2-sulfonamide] | < 1 µM
4 | CCCCOc1cc(C(F)(F)[C@@H](NS(=O)(=O)c2ccc3cc(OC4CCCC4)ccc3c2)C(=O)N2CCC(N)CC2)ccc1Cl [Compound 126-2, (S)—N-(3-(4-aminopiperidin-1-yl)-1-(3-butoxy-4-chlorophenyl)-1,1-difluoro-3-oxopropan-2-yl)-6-(cyclopentyloxy)naphthalene-2-sulfonamide] | 1 to 10 µM
5 | CCCCOc1cc(C(F)(F)[C@H](NS(=O)(=O)c2ccc(OCC3CCCCC3)cc2)C(=O)N2CCC(N)CC2)ccc1Cl [Compound 127-1, (R)—N-(3-(4-aminopiperidin-1-yl)-1-(3-butoxy-4-chlorophenyl)-1,1-difluoro-3-oxopropan-2-yl)-4-(cyclohexylmethoxy)benzenesulfonamide] | < 1 µM
6 | CCCCOc1cc(C(F)(F)[C@@H](NS(=O)(=O)c2ccc(OCC3CCCCC3)cc2)C(=O)N2CCC(N)CC2)ccc1Cl [Compound 127-2, (S)—N-(3-(4-aminopiperidin-1-yl)-1-(3-butoxy-4-chlorophenyl)-1,1-difluoro-3-oxopropan-2-yl)-4-(cyclohexylmethoxy)benzenesulfonamide] | 1 to 10 µM
7 | COc1cc(C(F)(F)[C@H](NS(=O)(=O)c2ccc(OCC3CCCCC3)cc2)C(=O)N2C3CCC2CC(N)C3)ccc1Br (stereo partly drawn) [Compound 128-1, N-((2R)-3-(3-amino-8-azabicyclo[3.2.1]octan-8-yl)-1-(4-bromo-3-methoxyphenyl)-1,1-difluoro-3-oxopropan-2-yl)-4-(cyclohexylmethoxy) benzenesulfonamide] | < 1 µM
8 | COc1cc(C(F)(F)[C@@H](NS(=O)(=O)c2ccc(OCC3CCCCC3)cc2)C(=O)N2C3CCC2CC(N)C3)ccc1Br (stereo partly drawn) [Compound 128-2, N-((2S)-3-(3-amino-8-azabicyclo[3.2.1]octan-8-yl)-1-(4-bromo-3-methoxyphenyl)-1,1-difluoro-3-oxopropan-2-yl)-4-(cyclohexylmethoxy)benzenesulfonamide] | 1 to 10 µM
9 | COc1cc(C(F)(F)[C@H](NS(=O)(=O)c2ccc(OCC3CCCCC3)cc2)C(=O)N2CCC(N)CC2)ccc1Cl [Compound 129-1, (R)—N-(3-(4-aminopiperidin-1-yl)-1-(4-chloro-3-methoxyphenyl)-1,1-difluoro-3-oxopropan-2-yl)-4-(cyclohexylmethoxy)benzenesulfonamide] | 1 to 10 µM
10 | COc1cc(C(F)(F)[C@@H](NS(=O)(=O)c2ccc(OCC3CCCCC3)cc2)C(=O)N2CCC(N)CC2)ccc1Cl [Compound 129-2, (S)—N-(3-(4-aminopiperidin-1-yl)-1-(4-chloro-3-methoxyphenyl)-1,1-difluoro-3-oxopropan-2-yl)-4-(cyclohexylmethoxy)benzenesulfonamide] | 10 to 30 µM
11 | NC1CC2CCC(C1)N2C(=O)[C@@H](NS(=O)(=O)c1ccc2cc(OC3CCCC3)ccc2c1)C(F)(F)c1ccc(Cl)s1 (stereo partly drawn) [Compound 130-1, N-((2R)-3-(3-amino-8-azabicyclo[3.2.1]octan-8-yl)-1-(5-chlorothiophen-2-yl)-1,1-difluoro-3-oxopropan-2-yl)-6-(cyclopentyloxy)naphthalene-2-sulfonamide] | 1 to 10 µM
12 | NC1CC2CCC(C1)N2C(=O)[C@H](NS(=O)(=O)c1ccc2cc(OC3CCCC3)ccc2c1)C(F)(F)c1ccc(Cl)s1 (stereo partly drawn) [Compound 130-2, N-((2S)-3-(3-amino-8-azabicyclo[3.2.1]octan-8-yl)-1-(5-chlorothiophen-2-yl)-1,1-difluoro-3-oxopropan-2-yl)-6-(cyclopentyloxy)naphthalene-2-sulfonamide] | 10 to 30 µM
13 | NC1CCN(C(=O)[C@@H](NS(=O)(=O)c2ccc3cc(OC4CCCC4)ccc3c2)C(F)(F)c2ccc(Cl)s2)CC1 [Compound 131-1, (R)—N-(3-(4-aminopiperidin-1-yl)-1-(5-chlorothiophen-2-yl)-1,1-difluoro-3-oxopropan-2-yl)-6-(cyclopentyloxy)naphthalene-2-sulfonamide] | 1 to 10 µM
14 | NC1CCN(C(=O)[C@H](NS(=O)(=O)c2ccc3cc(OC4CCCC4)ccc3c2)C(F)(F)c2ccc(Cl)s2)CC1 [Compound 131-2, (S)—N-(3-(4-aminopiperidin-1-yl)-1-(5-chlorothiophen-2-yl)-1,1-difluoro-3-oxopropan-2-yl)-6-(cyclopentyloxy)naphthalene-2-sulfonamide] | 1 to 10 µM
15 | N[C@H]1CCCN(C(=O)[C@@H](NS(=O)(=O)c2ccc3cc(OC4CCCC4)ccc3c2)C(F)(F)c2ccc(Br)cc2)C1 [Compound 132-1, N—((R)-3-((S)-3-aminopiperidin-1-yl)-1-(4-bromophenyl)-1,1-difluoro-3-oxopropan-2-yl)-6-(cyclopentyloxy)naphthalene-2-sulfonamide trifluoroacetate] | 1 to 10 µM
16 | N[C@H]1CCCN(C(=O)[C@H](NS(=O)(=O)c2ccc3cc(OC4CCCC4)ccc3c2)C(F)(F)c2ccc(Br)cc2)C1 [Compound 132-2, N—((S)-3-((S)-3-aminopiperidin-1-yl)-1-(4-bromophenyl)-1,1-difluoro-3-oxopropan-2-yl)-6-(cyclopentyloxy)naphthalene-2-sulfonamide trifluoroacetate] | 10 to 30 µM
17 | NC1CC2CCC(C1)N2C(=O)[C@@H](NC(=O)C(=O)c1ccc2cc(OC3CCCC3)ccc2c1)C(F)(F)c1ccc(-c2ccc(Cl)cc2)cc1 (stereo partly drawn) [Compound 133-1, N-((2R)-3-(3-amino-8-azabicyclo[3.2.1]octan-8-yl)-1-(4′-chloro-[1,1′-biphenyl]-4-yl)-1,1-difluoro-3-oxopropan-2-yl)-2-(6-(cyclopentyloxy)naphthalen-2-yl)-2-oxoacetamide trifluoroacetate] | 1 to 10 µM
18 | NC1CC2CCC(C1)N2C(=O)[C@H](NC(=O)C(=O)c1ccc2cc(OC3CCCC3)ccc2c1)C(F)(F)c1ccc(-c2ccc(Cl)cc2)cc1 (stereo partly drawn) [Compound 133-2, N-((2S)-3-(3-amino-8-azabicyclo[3.2.1]octan-8-yl)-1-(4′-chloro-[1,1′-biphenyl]-4-yl)-1,1-difluoro-3-oxopropan-2-yl)-2-(6-(cyclopentyloxy)naphthalen-2-yl)-2-oxoacetamide trifluoroacetate] | 30 to 100 µM
19 | NC1CCN(C(=O)[C@@H](NC(=O)C(=O)c2ccc(OCC3CCCCC3)cc2)C(F)(F)c2ccc(-c3ccc(Cl)cc3)cc2)CC1 [Compound 134-1, (R)—N-(3-(4-aminopiperidin-1-yl)-1-(4′-chloro-[1,1′-biphenyl]-4-yl)-1,1-difluoro-3-oxopropan-2-yl)-2-(4-(cyclohexylmethoxy)phenyl)-2-oxoacetamide trifluoroacetate] | 10 to 30 µM
20 | NC1CCN(C(=O)[C@H](NC(=O)C(=O)c2ccc(OCC3CCCCC3)cc2)C(F)(F)c2ccc(-c3ccc(Cl)cc3)cc2)CC1 [Compound 134-2, (S)—N-(3-(4-aminopiperidin-1-yl)-1-(4′-chloro-[1,1′-biphenyl]-4-yl)-1,1-difluoro-3-oxopropan-2-yl)-2-(4-(cyclohexylmethoxy)phenyl)-2-oxoacetamide trifluoroacetate] | 30 to 100 µM
21 | COc1cc(C(F)(F)[C@H](NS(=O)(=O)c2ccc3cc(OC4CCCC4)ccc3c2)C(=O)N2C3CCC2CC(N)C3)ccc1-c1ccc(Cl)cc1 (stereo partly drawn) [Compound 135-1, N-((2R)-3-(3-amino-8-azabicyclo[3.2.1]octan-8-yl)-1-(4′-chloro-2-methoxy-[1,1′-biphenyl]-4-yl)-1,1-difluoro-3-oxopropan-2-yl)-6-(cyclopentyloxy) naphthalene-2-sulfonamide trifluoroacetate] | < 1 µM
22 | COc1cc(C(F)(F)[C@@H](NS(=O)(=O)c2ccc3cc(OC4CCCC4)ccc3c2)C(=O)N2C3CCC2CC(N)C3)ccc1-c1ccc(Cl)cc1 (stereo partly drawn) [Compound 135-2, N-((2S)-3-(3-amino-8-azabicyclo[3.2.1]octan-8-yl)-1-(4′-chloro-2-methoxy-[1,1′-biphenyl]-4-yl)-1,1-difluoro-3-oxopropan-2-yl)-6-(cyclopentyloxy)naphthalene-2-sulfonamide trifluoroacetate] | 1 to 10 µM
